Assay results reported in patent US8597618B1, “Dentifrice composition” (Toms's of Maine, Inc., priority 2012, dated 2013).
Like-named read-outs stand apart in the source and are kept apart here.

Columns and labels:
EpiOral ORL-200 model [1] = experiment: EpiOral in Vitro Irritation Test Method (EpiOral ORL-200 model); settings: for ET-50 Time: time at which 50% of cells are viable, test terminated at 240 minutes
Method: (§1) To evaluate the potential irritancy of the dentifrice formulae, surfactant components were diluted in water and tested using an EpiOral in Vitro Irritation Test Method, in particular the EpiOral ORL-200 model, a known model for testing irritant potential of dentifrice components.
(§2) In the EpiOral test, the dentifrice components were tested to determine the parameter “ET-50” which represents the time at which 50% of cells are viable: the higher the ET-50 time then the less irritating the material.
(§3) Dentifrice compositions incorporating different surfactant systems were also subjected to the EpiOral test.

[2] = Foaming capability of individual surfactant components admixed with water and agitated; format: physicochemical; settings: for Foaming ability: numerical score, 1 representing an excellent foamer and 5 a poor foamer
Method: The foaming ability was determined by a numerical score, 1 representing an excellent foamer and 5 representing a poor foamer

EpiOral ORL-200 model [3] = tested on: EpiOral ORL-200 model
Method: as §1, §2, §3

ET-50 Time (EpiOral ORL-200 model [3]) [min]	foaming ability as compared to sodium lauryl sulfate ([2]; individual surfactant components, in words)	Compound	ET-50 Time (EpiOral ORL-200 model [1]; surfactant component 1 wt % in water) [min]	ET-50 Time (EpiOral ORL-200 model [1]; surfactant component 2 wt % in water) [min]	potential irritancy (EpiOral ORL-200 model [1]; surfactant components in water at different concentrations, in words)	Foaming ability [2]	potential irritancy (EpiOral ORL-200 model [3])
		CCCCCCCCCCCCOS(=O)(=O)[O-].[Na+] [Sodium lauryl sulfate, sodium lauryl sulfate]	115.4	48.3	high	1	
>240	significantly poorer	lauryl glucoside				3	very low
